Data on one compound can be found in article PMC8808171, “Nonselective TRPC channel inhibition and suppression of aminoglycoside-induced premature termination codon readthrough by the small molecule AC1903” (The Journal of Biological Chemistry, 2022).

In this assay the target is T1, TRPC5:C5 (Homo sapiens, UniProt Q9UL62).
T1 construct: expressed in transfected cells; host or cells: HEK T-REx (tetracycline-induced)
T1 sequence (Q9UL62 1-973): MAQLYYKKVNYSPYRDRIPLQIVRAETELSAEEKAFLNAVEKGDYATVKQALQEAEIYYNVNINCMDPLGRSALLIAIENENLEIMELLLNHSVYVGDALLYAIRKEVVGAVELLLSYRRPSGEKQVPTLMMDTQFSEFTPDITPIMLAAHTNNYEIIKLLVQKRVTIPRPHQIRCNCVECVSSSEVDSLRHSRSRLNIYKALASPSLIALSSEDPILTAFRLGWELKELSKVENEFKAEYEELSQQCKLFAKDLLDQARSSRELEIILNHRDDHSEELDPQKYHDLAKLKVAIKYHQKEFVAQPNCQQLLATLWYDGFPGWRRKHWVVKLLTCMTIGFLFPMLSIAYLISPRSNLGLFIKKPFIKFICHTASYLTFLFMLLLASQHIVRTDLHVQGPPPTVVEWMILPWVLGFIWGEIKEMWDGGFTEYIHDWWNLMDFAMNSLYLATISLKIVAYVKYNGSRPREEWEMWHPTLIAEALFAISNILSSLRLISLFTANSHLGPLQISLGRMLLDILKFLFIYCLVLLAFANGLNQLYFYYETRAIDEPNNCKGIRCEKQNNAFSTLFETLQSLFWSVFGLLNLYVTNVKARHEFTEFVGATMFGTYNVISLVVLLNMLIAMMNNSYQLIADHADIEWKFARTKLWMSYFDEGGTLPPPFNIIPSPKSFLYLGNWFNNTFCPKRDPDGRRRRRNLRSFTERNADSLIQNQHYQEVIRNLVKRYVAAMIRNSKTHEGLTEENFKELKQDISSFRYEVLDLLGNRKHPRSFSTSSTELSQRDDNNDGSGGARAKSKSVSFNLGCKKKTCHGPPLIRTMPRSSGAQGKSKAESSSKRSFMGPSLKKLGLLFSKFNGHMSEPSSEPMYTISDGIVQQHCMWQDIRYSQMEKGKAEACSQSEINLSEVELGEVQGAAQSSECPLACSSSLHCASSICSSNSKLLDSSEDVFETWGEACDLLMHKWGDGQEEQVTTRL
Put plainly: [Ca2+]i recordings (Fura-2), TRPC5:C5 in HEK T-REx cells. Format: cell-based. As to conditions: for IC50: HEK T-REx, 30 min preincubation. The protocol: Based on the findings described above, we wondered whether AC1903—which is typically used as a TRPC5 inhibitor at concentrations of 30–100 μM in cellular assays ([29], [56])—might have limited selectivity for TRPC5 channels and whether its effect on intracellular G418 levels and PTC readthrough might be the consequence of inhibition of other or multiple targets. All well-characterized TRPC channel inhibitors reported to date modulate multiple TRP(C) channels ([34], [35], [36]). […] Because limited data for the selectivity of AC1903 are available in the public domain, we decided to profile AC1903 against a selection of calcium-permeable cation channels by intracellular calcium ([Ca^2+]i) recordings using well-characterized cell lines and TRP channel activators ([46], [57], [58]), and the Ca^2+ indicator Fura-2. In these assays, cells (HEK 293, HEK T-REx, or CHO) overexpressing the relevant ion channel protein and loaded with Fura-2 AM (a cell-permeable precursor of Fura-2) were preincubated with various concentrations of AC1903 or vehicle (DMSO) for 30 min. Then, changes in ratiometric fluorescence (from background) were recorded upon addition of the respective ion channel activator.
Figure 4 AC1903 inhibits multiple TRP channels.A and C, representative [Ca^2+]i measurements from a single 96-well plate (N = 6; mean ± SD over technical replicates) showing inhibition of EA-mediated [Ca^2+]i responses by 0.1 to 100 μM AC1903 in (Tet+) HEK T-REx cells expressing TRPC5 (A) or TRPC4 (C). B and D, concentration–response data for experiments in (A) and (C) (scatter plots showing normalized data for three independent experiments; n/N = 3/18). Responses were calculated at 250 to 295 s compared to [Ca^2+]i at baseline (0–55 s). E and G, representative [Ca^2+]i measurements from a single 96-well plate (N = 6; mean ± SD over technical replicates) showing inhibition of OAG-mediated [Ca^2+]i responses by 0.1 to 100 μM AC1903 in (Tet+) HEK T-REx cells expressing TRPC3 (E) and WT HEK 293 cells transiently expressing TRPC6 (G). F and H, concentration–response data for experiments in (E) and (G) (scatter plots showing normalized data for three independent experiments; n/N = 3/18). Responses were calculated at 90 to 110 s compared with [Ca^2+]i at baseline (0–55 s). I, representative [Ca^2+]i measurements from a single 96-well plate (N = 6; mean ± SD over technical replicates) showing inhibition of the 4α-PDD-mediated [Ca^2+]i response by 0.1 to 100 μM AC1903 in CHO cells stably expressing TRPV4. J, concentration–response data for experiments in (I) (scatter plot showing normalized data for three independent experiments; n/N = 3/18). Responses were calculated at 290 to 300 s compared with [Ca^2+]i baseline (0–55 s). EA, (-)-englerin A; TRPC, transient receptor potential canonical. […]

SMILES strings stand for the structures.

For `c1ccc(Cn2c(NCc3ccco3)nc3ccccc32)cc1` [AC1903], where the note is “activator EA (30 nM)”, the IC50 amounted to 18 µM and the Hill slope is recorded as -1.8. Under “activator S1P (10 μM)”, this compound came in with an IC50 of 3.5 µM and a Hill slope of -1.6.

As a reminder, the IC50 is the point on the concentration scale where inhibition reaches its midpoint. As a reminder, the Hill slope is a measure of the steepness of the concentration-response curve.
